Measurements from ChEMBL document CHEMBL1135443, “Acyclic nucleoside analogues as novel inhibitors of human mitochondrial thymidine kinase” (J Med Chem, 2002).

Experiments:
[1] = molecular target: Thymidine kinase 2, mitochondrial (Homo sapiens) (UniProt O00142)
[2] = tested on: Thymidine kinase (Herpes simplex virus type 1); details: Human alphaherpesvirus 1

Thymidine kinase 2, mitochondrial (Homo sapiens), sequence (O00142 whole entry, looked up): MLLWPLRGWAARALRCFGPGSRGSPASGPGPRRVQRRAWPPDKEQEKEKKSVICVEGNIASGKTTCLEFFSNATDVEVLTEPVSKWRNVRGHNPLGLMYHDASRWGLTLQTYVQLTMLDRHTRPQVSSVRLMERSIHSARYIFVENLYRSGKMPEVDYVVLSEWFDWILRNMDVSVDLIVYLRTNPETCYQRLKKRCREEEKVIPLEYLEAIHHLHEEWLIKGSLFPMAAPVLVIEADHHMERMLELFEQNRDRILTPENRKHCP

With `Cc1cn(C/C=C\COC(c2ccccc2)(c2ccccc2)c2ccccc2)c(=O)n(C)c1=O` the NEA [1] was “Not estimated accurately” and the NEA [2] was “Not estimated accurately”.
In the case of `Cc1cn(CC#CCOC(c2ccccc2)(c2ccccc2)c2ccccc2)c(=O)[nH]c1=O`, the NEA [1] is reported as “Not estimated accurately”.
`Cc1cn(C/C=C\COC(c2ccccc2)(c2ccccc2)c2ccccc2)c(=O)nc1N` was tested, and the NEA [1] was “Not estimated accurately” and the NEA [2] was “Not estimated accurately”.
In the case of `Cc1cn(Cc2ccccc2COC(c2ccccc2)(c2ccccc2)c2ccccc2)c(=O)[nH]c1=O`, the NEA [1] is reported as “Not estimated accurately” and the NEA [2] is reported as “Not estimated accurately”.
For `Cc1cn(C/C=C\CO)c(=O)[nH]c1=O`, the NEA [1] was “Not estimated accurately” and the NEA [2] was “Not estimated accurately”.
`COc1ccc(C(OC[C@H]2O[C@@H](n3cc(C)c(=O)[nH]c3=O)C[C@@H]2O)(c2ccccc2)c2ccc(OC)cc2)cc1` was tested, and the NEA [1] was “Not estimated accurately”.
`Nc1nc(O)c2ncn(C/C=C\COC(c3ccccc3)(c3ccccc3)c3ccccc3)c2n1` was tested, and the NEA [1] was “Not estimated accurately” and the NEA [2] was “Not estimated accurately”.
